Results taken from publication PMC6412891, “Synthesis and Biological Evaluation of Novel Thiazolyl-Coumarin Derivatives as Potent Histone Deacetylase Inhibitors with Antifibrotic Activity” (Molecules, 2019).

Key:
[1] = system: HDACs HeLa cells nuclear extract; test: HDAC inhibitory activity, fluorometric kit, HeLa cell nuclear extract; assay type: biochemical, human; conditions: HeLa cell nuclear extract as HDAC source
HDAC1 human recombinant = target: T1, HDAC1 human recombinant (Homo sapiens, UniProt Q13547); test: HDAC1 inhibitory activity, fluorometric kit; assay type: biochemical; conditions: Class I
T1 construct: purchased Enzo Life Science BML-AK511
T1 sequence (Q13547 whole entry): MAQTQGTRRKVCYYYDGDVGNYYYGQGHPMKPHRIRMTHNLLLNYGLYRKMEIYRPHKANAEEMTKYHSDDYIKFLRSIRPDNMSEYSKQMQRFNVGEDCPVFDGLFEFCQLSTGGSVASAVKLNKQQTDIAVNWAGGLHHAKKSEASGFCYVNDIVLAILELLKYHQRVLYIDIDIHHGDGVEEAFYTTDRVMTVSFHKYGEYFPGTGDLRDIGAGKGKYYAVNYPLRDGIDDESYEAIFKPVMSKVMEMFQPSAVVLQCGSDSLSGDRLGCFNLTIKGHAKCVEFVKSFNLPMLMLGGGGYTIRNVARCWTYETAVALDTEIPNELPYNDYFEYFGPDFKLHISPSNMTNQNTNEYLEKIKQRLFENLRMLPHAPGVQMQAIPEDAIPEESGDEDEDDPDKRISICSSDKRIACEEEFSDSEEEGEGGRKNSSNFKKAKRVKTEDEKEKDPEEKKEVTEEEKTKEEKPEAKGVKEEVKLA

HDAC6 human recombinant = target: T2, HDAC6 human recombinant (Homo sapiens, UniProt Q9UBN7); test: HDAC6 inhibitory activity, fluorometric kit; assay type: biochemical; conditions: Class II
T2 construct: purchased Enzo Life Science BML-AK516
T2 sequence (Q9UBN7 1-1215): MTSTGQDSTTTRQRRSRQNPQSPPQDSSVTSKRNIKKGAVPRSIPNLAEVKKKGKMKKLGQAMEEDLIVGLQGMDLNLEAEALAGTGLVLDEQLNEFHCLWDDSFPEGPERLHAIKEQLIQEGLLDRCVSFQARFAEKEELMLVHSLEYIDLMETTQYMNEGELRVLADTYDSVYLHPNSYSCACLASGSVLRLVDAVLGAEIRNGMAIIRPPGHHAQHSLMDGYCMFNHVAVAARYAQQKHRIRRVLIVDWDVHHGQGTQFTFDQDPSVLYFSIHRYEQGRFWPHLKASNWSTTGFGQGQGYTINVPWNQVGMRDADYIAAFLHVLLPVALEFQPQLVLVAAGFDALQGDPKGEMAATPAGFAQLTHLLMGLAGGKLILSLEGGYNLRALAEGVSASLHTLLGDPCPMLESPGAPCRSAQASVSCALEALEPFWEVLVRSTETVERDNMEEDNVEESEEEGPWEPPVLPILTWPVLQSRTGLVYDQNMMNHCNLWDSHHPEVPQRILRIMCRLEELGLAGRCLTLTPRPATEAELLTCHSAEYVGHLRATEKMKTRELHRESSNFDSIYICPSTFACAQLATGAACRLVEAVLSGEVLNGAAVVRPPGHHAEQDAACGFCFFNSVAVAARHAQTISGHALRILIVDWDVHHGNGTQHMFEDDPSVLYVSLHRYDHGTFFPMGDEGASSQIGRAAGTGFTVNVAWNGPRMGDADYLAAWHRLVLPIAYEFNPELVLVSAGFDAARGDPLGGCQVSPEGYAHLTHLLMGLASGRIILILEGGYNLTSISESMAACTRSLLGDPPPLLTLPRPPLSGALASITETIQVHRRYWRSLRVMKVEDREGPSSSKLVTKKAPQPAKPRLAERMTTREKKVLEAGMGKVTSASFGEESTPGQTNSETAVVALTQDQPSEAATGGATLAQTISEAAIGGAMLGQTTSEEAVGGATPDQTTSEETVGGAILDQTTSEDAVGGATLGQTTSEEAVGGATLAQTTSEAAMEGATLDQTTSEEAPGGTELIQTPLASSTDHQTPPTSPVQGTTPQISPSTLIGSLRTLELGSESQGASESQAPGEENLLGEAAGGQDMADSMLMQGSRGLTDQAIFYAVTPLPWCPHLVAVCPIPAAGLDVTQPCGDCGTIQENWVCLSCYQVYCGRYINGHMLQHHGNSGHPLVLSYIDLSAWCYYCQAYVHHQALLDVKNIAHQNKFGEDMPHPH

[2] = system: neonatal rat cardiac fibroblasts (CFs); test: FBS-induced cardiac fibroblast proliferation assay (Alamar Blue); assay type: cell-based; conditions: 10% FBS-induced CF proliferation, 48 h, read-out: Inhibition percentage of cell proliferation
Method: CFs were treated for 48 h with 10% fetal bovine serum (FBS), to induce CFs proliferation in presence/absence of each new CTz derivatives in a concentration range of 1–10 μM. In Table 4, the inhibition percentage of cell proliferation for each concentration of the synthesized compounds are shown. All derivatives inhibited CFs proliferation induce by serum.
Sprague Dawley rats were obtained from the Animal Breeding Facility of the School of Chemical and Pharmaceutical Sciences at the University of Chile. All studies followed the Guide for the Care and Use of Laboratory Animals published by the US National Institutes of Health (NIH Publication 8th, 2011), and experimental protocols were approved by the University of Chile Institutional Ethics Review Committee. CF were isolated from of 2 or 3–day–old Sprague-Dawley rats and cultured as described previously. Briefly, the neonatal rats were decapitated and their hearts were extracted under aseptic environment. Atria were removed and ventricles were cut into small pieces (~1–2 mm) for posterior colagenase II digestion. The digestion yield was separated by 10 min centrifugation at 89×g. The pellet was resuspended in 10 mL of Dulbecco’s Modified Eagle’s Medium/Nutrient F-12 (DMEM-F12) supplemented with 10% FBS and antibiotics (100 μg/mL streptomycin and 100 units/mL penicillin) and cultured in a humid atmosphere of 5% CO2 and 95% O2 at 37°C until confluence (5 days). The purity of the CFs population was assessed through the expression of several markers. CFs had positive staining against vimentin (Santa Cruz Biotechnology), while being negative against sarcomeric actin and desmin (Sigma-Aldrich). Experiments were performed on cells at passage 1. […]
To evaluate cytotoxicity, CFs were seeded in 12 microwell plates at a ratio of 2 × 10^4 cell/cm^2, cultured in DMEM–F12 medium + 10% FBS, which was subsequently replaced by DMEM–F12. After 24 h of serum starvation derivatives were applied at proper times and concentrations in accordance to experimental procedures. Cell viability assays were carried out using Alamar Blue®, a nontoxic, cell permeable non fluorescent compound that is blue in color. Viable cells reduce resazurin to resorufin, which produces very bright red fluorescence which is used as a quantitative cell viability measure. […] The fluorescence of Alamar Blue® was read using microplate reader at 570 excitation and emission to 595 nm. Cell survival was expressed as percentage over the untreated cells. […] Cell proliferation was quantified by Alamar Blue®, according to protocol mentioned before. Cell proliferation was expressed as percentage over the control FBS treated cells.

[3] = Cytotoxicity assay (Alamar Blue) in cardiac fibroblasts; assay type: cell-based, rat; conditions: Sprague-Dawley, rat, primary neonatal rat cardiac fibroblasts (CFs), CFs treated for 48 h
Method: CFs were treated for 48 h with all the new CTz derivatives in a broad concentration range (100 μM^−1 mM), and their cytotoxicity was then evaluated. In Table 3 cytotoxic concentration 50 (CC50) values for each of the synthesized compounds are shown. […] When comparing the different ZBG the series 5 is the least cytotoxic for CFs, while series 8 was the most cytotoxic.
Sprague Dawley rats were obtained from the Animal Breeding Facility of the School of Chemical and Pharmaceutical Sciences at the University of Chile. All studies followed the Guide for the Care and Use of Laboratory Animals published by the US National Institutes of Health (NIH Publication 8th, 2011), and experimental protocols were approved by the University of Chile Institutional Ethics Review Committee. CF were isolated from of 2 or 3–day–old Sprague-Dawley rats and cultured as described previously. Briefly, the neonatal rats were decapitated and their hearts were extracted under aseptic environment. Atria were removed and ventricles were cut into small pieces (~1–2 mm) for posterior colagenase II digestion. The digestion yield was separated by 10 min centrifugation at 89×g. The pellet was resuspended in 10 mL of Dulbecco’s Modified Eagle’s Medium/Nutrient F-12 (DMEM-F12) supplemented with 10% FBS and antibiotics (100 μg/mL streptomycin and 100 units/mL penicillin) and cultured in a humid atmosphere of 5% CO2 and 95% O2 at 37°C until confluence (5 days). The purity of the CFs population was assessed through the expression of several markers. CFs had positive staining against vimentin (Santa Cruz Biotechnology), while being negative against sarcomeric actin and desmin (Sigma-Aldrich). Experiments were performed on cells at passage 1. Cells were cultured in 35-mm well plates and serum starved for 24 h prior to stimulation.
To evaluate cytotoxicity, CFs were seeded in 12 microwell plates at a ratio of 2 × 10^4 cell/cm^2, cultured in DMEM–F12 medium + 10% FBS, which was subsequently replaced by DMEM–F12. After 24 h of serum starvation derivatives were applied at proper times and concentrations in accordance to experimental procedures. Cell viability assays were carried out using Alamar Blue®, a nontoxic, cell permeable non fluorescent compound that is blue in color. Viable cells reduce resazurin to resorufin, which produces very bright red fluorescence which is used as a quantitative cell viability measure. 10 μL of 0.2 mg/mL Alamar Blue® was added into each well followed by incubation for 24 h. The fluorescence of Alamar Blue® was read using microplate reader at 570 excitation and emission to 595 nm. Cell survival was expressed as percentage over the untreated cells. To evaluate CFs proliferation assay, cells were seeded as mentioned before, and after serum starvation, they were stimulated by 10% fetal bovine serum (FBS), in presence/absence of CTz derivatives for […], at concentrations according to experiment. Cell proliferation was quantified by Alamar Blue®, according to protocol mentioned before. Cell proliferation was expressed as percentage over the control FBS treated cells.

| IC50 [1] [µM] | IC50 (HDAC1 human recombinant) [µM] | IC50 (HDAC6 human recombinant) [µM] | SMILES | inhibition at 1 µM [2] [%] | inhibition at 5 µM [2] [%] | inhibition at 10 µM [2] [%] | CC50 at 48 h [3] [µM] |
| --- | --- | --- | --- | --- | --- | --- | --- |
| 0.509 ± 0.0233 | 0.613 ± 0.0328 | 0.449 ± 0.0207 | O=C(Nc1nc(-c2cc3cc(Br)ccc3oc2=O)cs1)c1ccc(O)c(O)c1 [Compound 6b] | 15.8 ± 3.6 | 40 ± 1.8 | 64.1 ± 1.7 | 102 ± 10.3 |
| 0.477 ± 0.0275 | 0.504 ± 0.0314 | 0.581 ± 0.0275 | COc1ccc2oc(=O)c(-c3csc(NC(=O)c4ccc(O)c(O)c4)n3)cc2c1 [Compound 6c] | 10.9 ± 3.6 | 42.2 ± 1.8 | 64.9 ± 2.3 | 124 ± 12.8 |
| 5.4 ± 0.4 | 4.67 ± 0.362 | 6.34 ± 0.466 | O=C(O)CCCCC(=O)Nc1nc(-c2cc3cc(Br)ccc3oc2=O)cs1 [Compound 7b] | 2.4 ± 1.1 | 36.1 ± 5.4 | 48 ± 4.8 | 80 ± 23.6 |
| 4.7 ± 0.31 | 3.38 ± 0.302 | 2.43 ± 0.157 | COc1ccc2oc(=O)c(-c3csc(NC(=O)CCCCC(=O)O)n3)cc2c1 [Compound 7c] | 6 ± 0.4 | 33 ± 4.1 | 48.8 ± 5.2 | 99.5 ± 6.3 |
